Values after ≈ are worked out from the molar mass of the structure shown.
Key:
[1] = Solubility of rizatriptan in supercritical CO2, static gravimetric method; type: physicochemical; settings: read-out: Solubility in supercritical carbon dioxide
Procedure: (§1) A specialized high-pressure system is employed to measure the solubility of rizatriptan using gravimetric techniques in a supercritical CO2[6]. A 200 mL vessel capable of withstanding pressures up to 35 MPa and temperatures up to 423 K is prepared with leak-free seals, valves, and fittings. All valves and connectors were 1/8 inch in size. The system’s pressure and temperature sensors are calibrated for accuracy. Next, 2000 mg of rizatriptan powder is weighed precisely using an analytical balance with 0.01 mg of sensitivity. The powder is then compacted into 5-mm diameter tablets to ensure uniformity and structural integrity. The tablets are placed in a basket inside the vessel to maximize their exposure to SC-CO2. CO2 is introduced gradually using a high-precision pump (SC-1000, SUPEREX), with the pressure increased in 0.05 MPa increments to maintain stability. The pressure is monitored and held within ± 0.01 MPa. Temperature is controlled within ± 0.1 K using a thermocouple, and the mixture is stirred at 250 rpm to ensure uniformity. […] The pressure and temperature indicators are checked to ensure stability. After equilibration, the vessel is carefully depressurized to ambient conditions to halt dissolution without losing the sample. The remaining tablets are then removed and cleaned of residual CO2. If needed, they are dried in a desiccator. The undissolved drug is weighed using a high-precision balance. The experiment is replicated at least three times to calculate the mean solubility and standard deviation. The following formula was used to calculate the mass of dissolved rizatriptan:1
Include the molecular weights of rizatriptan ([…]) and CO2 (44.01 g/mol) in the mole fraction calculations.2 3 4 5
The measurements were conducted at four isotherms (308.2 K, 318.2 K, 328.2 K, and 338.2 K) and […] pressure points (12, 15, 18, 21, 24, 27, 30 MPa). Table 3 documents the experimental conditions, including temperature, pressure, SC-CO2 density, mole fraction, standard deviation, and solubility in grams per liter.

[2] = Preliminary tests of equilibration time for solubility in SC-CO2 (Table S1); type: physicochemical; settings: supercritical CO2, 65 °C, organic solvent or mixture, thermodynamic from solid, read-out: Solubility (preliminary test)
Procedure: as §1
Table S1. Preliminary tests.

[3] = Enthalpies (total, vaporization, solvation) derived from density-based solubility models; type: physicochemical; settings: SC-CO2
Procedure: This study thoroughly examines the solubility of rizatriptan in SC-CO2 for pharmaceutical processing by supercritical fluid technology. A series of experimental solubility measurements were conducted at a range of temperatures, from 308.2 to 338.2 K, and pressures ranging from 12 to 30 megapascals. Seven density-based models ( Chrastil, Bartle, K–J, Méndez–Santiago–Teja, Bian et al., and Sodeifian et al. (Ⅰ and Ⅱ)) and three equations of state (Peng–Robinson, Soave–Redlich–Kwong, and regular solution) were employed to analyze the resulting data. Additionally, the enthalpies of the total, vaporization, and solvation processes were derived to elucidate phase behavior.
This leads to the logarithmic relationship, where the enthalpy term combines solvation and vaporization effects
The Bartle model extends the concept by normalizing solubility with pressure and using a reduced density term, allowing direct estimation of the solute’s heat of vaporization from parameter. […] The MST model was derived from a Taylor expansion of the Helmholtz free energy near the solvent’s critical point, focusing on infinite dilution behavior. By incorporating the Clausius–Clapeyron equation for missing sublimation pressure data, it becomes a robust three-parameter tool. It excels in self-consistency checks, where plotting ) against density (ρ), should yield a single line for reliable data. […]

[4] = parameters: method as in PMID 36559181, doi:10.1007/s40005-015-0206-z, PMID 20582194, PMID 10551439; settings: conventional oral tablets; cited from earlier work

solubility at 240 min ([1]; supercritical CO2, T 308.0 K (text 308.2 K), P 12 MPa, ρCO2 768.52 kg/m^3): 61.6 µg/mL (≈ 229 µM)
solubility at 240 min ([1]; supercritical CO2, T 308.0 K (text 308.2 K), P 15 MPa, ρCO2 816.10 kg/m^3): 88 µg/mL (≈ 327 µM)
solubility at 240 min ([1]; supercritical CO2, T 308.0 K (text 308.2 K), P 18 MPa, ρCO2 816.10 kg/m^3): 107 µg/mL (≈ 396 µM)
solubility at 240 min ([1]; supercritical CO2, T 308.0 K (text 308.2 K), P 21 MPa, ρCO2 874.55 kg/m^3): 138 µg/mL (≈ 512 µM)
solubility at 240 min ([1]; supercritical CO2, T 308.0 K (text 308.2 K), P 24 MPa, ρCO2 895.66 kg/m^3): 181 µg/mL (≈ 672 µM)
solubility at 240 min ([1]; supercritical CO2, T 308.0 K (text 308.2 K), P 27 MPa, ρCO2 913.70 kg/m^3): 210 µg/mL (≈ 779 µM)
solubility at 240 min ([1]; supercritical CO2, T 308.0 K (text 308.2 K), P 30 MPa, ρCO2 929.85 kg/m^3): 237 µg/mL (≈ 878 µM)
solubility at 240 min ([1]; supercritical CO2, T 318.0 K (text 318.2 K), P 12 MPa, ρCO2 659.80 kg/m^3): 40.6 µg/mL (≈ 151 µM)
solubility at 240 min ([1]; supercritical CO2, T 318.0 K (text 318.2 K), P 15 MPa, ρCO2 743.83 kg/m^3): 83.5 µg/mL (≈ 310 µM)
solubility at 240 min ([1]; supercritical CO2, T 318.0 K (text 318.2 K), P 18 MPa, ρCO2 790.29 kg/m^3): 114 µg/mL (≈ 423 µM)
solubility at 240 min ([1]; supercritical CO2, T 318.0 K (text 318.2 K), P 21 MPa, ρCO2 823.80 kg/m^3): 158 µg/mL (≈ 585 µM)
solubility at 240 min ([1]; supercritical CO2, T 318.0 K (text 318.2 K), P 24 MPa, ρCO2 850.15 kg/m^3): 213 µg/mL (≈ 790 µM)
solubility at 240 min ([1]; supercritical CO2, T 318.0 K (text 318.2 K), P 27 MPa, ρCO2 872.14 kg/m^3): 250 µg/mL (≈ 928 µM)
solubility at 240 min ([1]; supercritical CO2, T 318.0 K (text 318.2 K), P 30 MPa, ρCO2 890.90 kg/m^3): 269 µg/mL (≈ 998 µM)
solubility at 240 min ([1]; supercritical CO2, T 328.0 K (text 328.2 K), P 12 MPa, ρCO2 506.75 kg/m^3): 20.4 µg/mL (≈ 75.7 µM)
solubility at 240 min ([1]; supercritical CO2, T 328.0 K (text 328.2 K), P 15 MPa, ρCO2 654.94 kg/m^3): 57.8 µg/mL (≈ 215 µM)
solubility at 240 min ([1]; supercritical CO2, T 328.0 K (text 328.2 K), P 18 MPa, ρCO2 724.13 kg/m^3): 114 µg/mL (≈ 421 µM)
solubility at 240 min ([1]; supercritical CO2, T 328.0 K (text 328.2 K), P 21 MPa, ρCO2 768.74 kg/m^3): 165 µg/mL (≈ 613 µM)
solubility at 240 min ([1]; supercritical CO2, T 328.0 K (text 328.2 K), P 24 MPa, ρCO2 801.92 kg/m^3): 216 µg/mL (≈ 800 µM)
solubility at 240 min ([1]; supercritical CO2, T 328.0 K (text 328.2 K), P 27 MPa, ρCO2 828.51 kg/m^3): 260 µg/mL (≈ 966 µM)
solubility at 240 min ([1]; supercritical CO2, T 328.0 K (text 328.2 K), P 30 MPa, ρCO2 850.83 kg/m^3): 288 µg/mL (≈ 1070 µM)
solubility at 240 min ([1]; supercritical CO2, T 338.0 K (text 338.2 K), P 12 MPa, ρCO2 384.17 kg/m^3): 8.3 µg/mL (≈ 30.8 µM)
solubility at 240 min ([1]; supercritical CO2, T 338.0 K (text 338.2 K), P 15 MPa, ρCO2 555.33 kg/m^3): 67.5 µg/mL (≈ 251 µM)
solubility at 240 min ([1]; supercritical CO2, T 338.0 K (text 338.2 K), P 18 MPa, ρCO2 651.28 kg/m^3): 124 µg/mL (≈ 459 µM)
solubility at 240 min ([1]; supercritical CO2, T 338.0 K (text 338.2 K), P 21 MPa, ρCO2 709.59 kg/m^3): 176 µg/mL (≈ 655 µM)
solubility at 240 min ([1]; supercritical CO2, T 338.0 K (text 338.2 K), P 24 MPa, ρCO2 751.27 kg/m^3): 223 µg/mL (≈ 829 µM)
solubility at 240 min ([1]; supercritical CO2, T 338.0 K (text 338.2 K), P 27 MPa, ρCO2 783.19 kg/m^3): 270 µg/mL (≈ 1000 µM)
solubility at 240 min ([1]; supercritical CO2, T 338.0 K (text 338.2 K), P 30 MPa, ρCO2 809.68 kg/m^3): 302 µg/mL (≈ 1120 µM)
solubility at 60 min ([2]; T 338, P 30, Time 60): 78.8 ± 0.7 µg/mL (≈ 293 µM)
solubility at 90 min ([2]; T 338, P 30, Time 90): 167.6 ± 0.8 µg/mL (≈ 622 µM)
solubility at 120 min ([2]; T 338, P 30, Time 120): 212.9 ± 0.8 µg/mL (≈ 790 µM)
solubility at 150 min ([2]; T 338, P 30, Time 150): 279 ± 1.1 µg/mL (≈ 1040 µM)
solubility at 180 min ([2]; T 338, P 30, Time 180): 285.8 ± 1.2 µg/mL (≈ 1060 µM)
solubility at 210 min ([2]; T 338, P 30, Time 210): 301.8 ± 1.4 µg/mL (≈ 1120 µM)
solubility at 240 min ([2]; T 338, P 30, Time 240): 301.8 ± 1.5 µg/mL (≈ 1120 µM)
enthalpy of vaporization [3]: 12.08 kcal/mol
overall (total) enthalpy [3]: 9.097 kcal/mol
SMILES: CN(C)CCc1c[nH]c2ccc(Cn3cncn3)cc12 [Rizatriptan, Rizatriptan benzoate]
bioavailability [4]: 40–45%

Source: publication PMC12657942, “Measurement and modeling of rizatriptan in supercritical CO2 for pharmaceutical processing” (Scientific Reports, 2025)
